Data on 18 molecules can be found in paper PMC6099623, “Novel Thiazolidinone/Thiazolo[3,2-a]Benzimidazolone-Isatin Conjugates as Apoptotic Anti-proliferative Agents Towards Breast Cancer: One-Pot Synthesis and In Vitro Biological Evaluation” (Molecules : A Journal of Synthetic Chemistry and Natural …, 2018).

For data set [1], the system named is MCF-7 breast cancer cell line. The data set can be described thus: Crystal Violet antiproliferative assay, MCF-7. It is filed as cell-based. The settings on record: Homo sapiens, MCF7, 48 h, Crystal Violet assay; 48 h of incubation; mean ± S.D. of three separate experiments. As for the experimental part: (§1) The in vitro antiproliferative activity of the newly synthesized conjugates 4a–n and 7a–d was evaluated against breast cancer MDA-MB-231 and MCF-7 cell lines, following the Crystal Violet (CV) cell cytotoxicity assay. Doxorubicin was included in this assay as a positive control, and Sunitinib was used as a reference drug.
(§2) Breast cancer cell lines MDA-MB-231 and MCF-7 cells were obtained from VACSERA Tissue Culture Unit. The cells were propagated in DMEM supplemented with 10% heat-inactivated fetal bovine serum, 1% L-glutamine (2.5 mM), HEPES (4-(2-hydroxyethyl)-1-piperazineethanesulfonic acid) buffer (10 mM) and 50 µg/mL gentamycin. All cells were maintained at 37 °C in a humidified atmosphere with 5% CO2 and were sub-cultured two times a week. Cytotoxicity was determined following the Crystal Violet (CV) cell cytotoxicity assay.
(§3) Test samples were dissolved in DMSO and kept at a stock concentration of 100 mM. Exponentially growing cells were collected using 0.25% Trypsin-EDTA and seeding was done at a density of 3000 cells/well in 96-well plates. After 24 h, the monolayer cultured cells were washed with sterile phosphate buffered saline (0.01 M pH 7.2) and simultaneously the cells were treated with […] from 10 different dilutions of the test compounds as well as Doxorubicin was […] Control wells were exposed to the same concentration of vehicle, DMSO (1%) used in the highest concentration of the test samples. Cell viability was >99% compared to untreated cells. The number of the surviving cells was determined by staining the cells with crystal violet followed by cell lysing using 33% glacial acetic acid. The absorbance was measured at 490 nm using ELISA reader (Thermo Fisher Scientific, Waltham, MA, USA) after gentle shaking. The absorbance values from untreated cells were considered as 100% proliferation.
(§4) The number of viable cells was determined using ELISA reader as previously mentioned and the percentage of viability was calculated as […] where ODt is the mean optical density of wells treated with the test sample and ODc is the mean optical density of untreated cells. The 50% inhibitory concentration (IC50) was estimated from graphic plots of the dose response curve for each conc. using GraphPad Prism software, Version 5 (San Diego, CA, USA). The data presented are the mean of at least three separate experiments.

The subject of data set [2] is MDA-MB-231 breast cancer cell line. The data set can be described thus: Crystal Violet antiproliferative assay, MDA-MB-231. It is filed as cell-based. The settings on record: 48 h of incubation, mean ± S.D. of three separate experiments. As for the experimental part:
as §1, §2, §3, §4

Data set [3] relates to breast epithelial cell line (MCF-10A). The data set can be described thus: Crystal violet cytotoxicity towards nontumorigenic MCF-10A. It is filed as cell-based, human. The note with it: for IC50: Homo sapiens, MCF-10A, nontumorigenic cells, mean ± S.D. of three separate experiments; for Selectivity Index (MCF-10A/MDA-MB-231): ratio of IC50 MCF-10A to IC50 MDA-MB-231. As for the experimental part: (§5) The cytotoxic activity of the active conjugates towards MDA-MB-231 cells (4c–e, 4g, 4l–n and 7a–d) was examined against nontumorigenic human lung fibroblast cell line (WI-38) and human breast epithelial cell line (MCF-10A) to investigate the potential safety of the newly prepared conjugates towards the normal cells. […] The results were expressed as IC50 values, and selectivity index was calculated (Table 2).
(§6) The cytotoxic activity of the active conjugates towards nontumorigenic human lung fibroblast cell line (WI-38) and human breast epithelial cell line (MCF-10A) was determined using Crystal violet (CV) cell cytotoxicity assay according to the previously published procedures.

Data set [4] has as its system lung fibroblast cell line (WI-38). The data set can be described thus: Crystal violet cytotoxicity towards nontumorigenic WI-38. It is filed as cell-based. The settings on record: Homo sapiens, nontumorigenic cells, mean ± S.D. of three separate experiments. As for the experimental part:
as §5, §6

As for `COc1cccc2c1C(=O)c1c(O)c3c(c(O)c1C2=O)C[C@@](O)(C(=O)CO)C[C@@H]3O[C@H]1C[C@H](N)[C@H](O)[C@H](C)O1` [Dox., Doxorubicin, reference compound], the IC50 in data set [1] was determined as 3.8 ± 0.4 µM; in data set [2] (Homo sapiens, MDA-MB-231, 48 h), 4.7 ± 0.4 µM.
As to `CCN(CC)CCNC(=O)c1c(C)[nH]c(/C=C2\C(=O)Nc3ccc(F)cc32)c1C` [Sunitinib, reference compound], the half-inhibitory concentration (IC50) in data set [1] stood at 3.4 ± 0.3 µM; in data set [2] (Homo sapiens, MDA-MB-231, 48 h), 5.5 ± 0.5 µM.
Take `O=C1Nc2ccc(F)cc2C1=C1SC(=Nc2ccccc2)N(c2ccccc2)C1=O` [Compound 4b, 5-(5-Fluoro-2-oxoindolin-3-ylidene)-3-phenyl-2-(phenylimino)thiazolidin-4-one]: the melting point was over 300 °C. Besides, the IC50 in data set [1] was 58.5 ± 3.2 µM. In data set [2] (Homo sapiens, MDA-MB-231, 48 h), half-maximal inhibition (IC50) was put at 108 ± 8.2 µM.
On to `O=C1Nc2ccccc2C1=C1SC(=Nc2ccccc2)N(c2ccccc2)C1=O` [Compound 4a, 5-(2-Oxoindolin-3-ylidene)-3-phenyl-2-(phenylimino)thiazolidin-4-one], for which the half-maximal inhibitory concentration (IC50) in data set [1] was over 200 µM; in data set [2] (Homo sapiens, MDA-MB-231, 48 h) it was over 200 µM.
On to `Cc1cc(C)c2c(c1)C(=C1SC(=Nc3ccccc3)N(c3ccccc3)C1=O)C(=O)N2` [Compound 4g, 5-(5,7-Dimethyl-2-oxoindolin-3-ylidene)-3-phenyl-2-(phenylimino)thiazolidin-4-one], for which the melting point was over 300 °C. Besides, in data set [3], the IC50 amounted to 142 ± 7.9 µM and the “Selectivity Index (MCF-10A/MDA-MB-231)” value stood at 3.25. Further, the midpoint of inhibition in data set [4], the IC50, lay at 120 ± 7.8 µM. In addition, half-maximal inhibition in data set [2] (Homo sapiens, MDA-MB-231, 48 h) (IC50) required 43.6 ± 3.1 µM.
Consider `Cc1ccc(N=C2SC(=C3C(=O)Nc4ccc(Br)cc43)C(=O)N2c2ccc(C)cc2)cc1` [Compound 4k, 5-(5-Bromo-2-oxoindolin-3-ylidene)-3-(p-tolyl)-2-(p-tolylimino)thiazolidin-4-one], for which the melting point is over 300 °C. The molecule further yielded an IC50 in data set [1] of over 200 µM. The IC50 in data set [2] (Homo sapiens, MDA-MB-231, 48 h) is over 200 µM.
On to `Cc1ccc2c(c1)C(=C1SC(=Nc3ccccc3)N(c3ccccc3)C1=O)C(=O)N2` [Compound 4f, 5-(5-Methyl-2-oxoindolin-3-ylidene)-3-phenyl-2-(phenylimino)thiazolidin-4-one], for which the concentration for half-maximal inhibition (IC50) in data set [1] stood at 22.8 ± 2 µM; in data set [2] (Homo sapiens, MDA-MB-231, 48 h), 60.9 ± 4.2 µM.
Consider `Cc1ccc(N=C2SC(=C3C(=O)Nc4c(C)cc(C)cc43)C(=O)N2c2ccc(C)cc2)cc1` [Compound 4n, 5-(5,7-Dimethyl-2-oxoindolin-3-ylidene)-3-(p-tolyl)-2-(p-tolylimino)thiazolidin-4-one], for which the melting point is over 300 °C. For the same molecule, in data set [1], the midpoint of inhibition, the IC50, lay at 23.7 ± 1.9 µM. In data set [3], the half-inhibitory concentration (IC50) worked out at 154 ± 5.2 µM and the “Selectivity Index (MCF-10A/MDA-MB-231)” value is listed as 4.2. Besides, in data set [4], the half-inhibitory concentration (IC50) worked out at 218 ± 13.5 µM. It took 36.3 ± 2.9 µM to reach half-maximal inhibition in data set [2] (Homo sapiens, MDA-MB-231, 48 h) (IC50).
The molecule `Cc1ccc(N=C2SC(=C3C(=O)Nc4ccccc43)C(=O)N2c2ccc(C)cc2)cc1` [Compound 4h, 5-(2-Oxoindolin-3-ylidene)-3-(p-tolyl)-2-(p-tolylimino)thiazolidin-4-one] yielded a melting point of over 300 °C. Half-maximal inhibition in data set [1] (IC50) required 56 ± 3.7 µM. Further, the IC50 in data set [2] (Homo sapiens, MDA-MB-231, 48 h) came out at 51.7 ± 2.1 µM.
For the molecule `Cc1cc(C)c2c(c1)C(=c1sc3nc4ccccc4n3c1=O)C(=O)N2` [Compound 7d, 2-(5,7-Dimethyl-2-oxoindolin-3-ylidene)benzo[4,5]imidazo[2,1-b]thiazol-3(2H)-one], the melting point was over 300 °C. In data set [1], this molecule yielded an IC50 of 27.6 ± 2.4 µM. Further, in data set [3], the IC50 amounted to 250 ± 9.8 µM and the “Selectivity Index (MCF-10A/MDA-MB-231)” value was 10.7. In data set [4], this molecule registered an IC50 of 234 ± 15.4 µM. Moreover, it took 23.5 ± 1 µM to reach half-maximal inhibition in data set [2] (Homo sapiens, MDA-MB-231, 48 h) (IC50).
`Cc1ccc2c(c1)C(=c1sc3nc4ccccc4n3c1=O)C(=O)N2` [Compound 7c, 2-(5-Methyl-2-oxoindolin-3-ylidene)benzo[4,5]imidazo[2,1-b]thiazol-3(2H)-one] gave a melting point of over 300 °C. This molecule also showed an IC50 in data set [1] of 48.2 ± 2.7 µM. For the same molecule, in data set [3], the half-maximal inhibitory concentration (IC50) came to 242 ± 11.5 µM and the “Selectivity Index (MCF-10A/MDA-MB-231)” value worked out at 6.0. The molecule also displayed an IC50 in data set [4] of 192 ± 10.8 µM. Inhibition in data set [2] (Homo sapiens, MDA-MB-231, 48 h) was half-maximal at 40.3 ± 2.5 µM (IC50).
In the case of `Cc1ccc(N=C2SC(=C3C(=O)Nc4ccc(Cl)cc43)C(=O)N2c2ccc(C)cc2)cc1` [Compound 4j, 5-(5-Chloro-2-oxoindolin-3-ylidene)-3-(p-tolyl)-2-(p-tolylimino)thiazolidin-4-one], the melting point is over 300 °C. This molecule also returned a concentration for half-maximal inhibition (IC50) in data set [1] of over 200 µM. The IC50 in data set [2] (Homo sapiens, MDA-MB-231, 48 h) was 50.8 ± 3.5 µM.
As for `Cc1ccc(N=C2SC(=C3C(=O)Nc4ccc(F)cc43)C(=O)N2c2ccc(C)cc2)cc1` [Compound 4i, 5-(5-Fluoro-2-oxoindolin-3-ylidene)-3-(p-tolyl)-2-(p-tolylimino)thiazolidin-4-one], the melting point was over 300 °C. In addition, the IC50 in data set [1] came to 105 ± 7.5 µM. The half-inhibitory concentration (IC50) in data set [2] (Homo sapiens, MDA-MB-231, 48 h) turned out to be 152 ± 11.5 µM.
For the molecule `O=C1Nc2ccc(Cl)cc2C1=C1SC(=Nc2ccccc2)N(c2ccccc2)C1=O` [Compound 4c, 5-(5-Chloro-2-oxoindolin-3-ylidene)-3-phenyl-2-(phenylimino)thiazolidin-4-one], the concentration for half-maximal inhibition (IC50) is 29.2 ± 2.5 µM in data set [1]; 113 ± 5.9 µM in data set [3]; 87.2 ± 5.2 µM in data set [4]; 24.1 ± 2.1 µM in data set [2] (Homo sapiens, MDA-MB-231, 48 h). Moreover, the “Selectivity Index (MCF-10A/MDA-MB-231)” value in data set [3] is reported as 4.7.
As to `O=C1Nc2ccc(Br)cc2C1=C1SC(=Nc2ccccc2)N(c2ccccc2)C1=O` [Compound 4d, 5-(5-Bromo-2-oxoindolin-3-ylidene)-3-phenyl-2-(phenylimino)thiazolidin-4-one], the concentration for half-maximal inhibition (IC50) in data set [1] was determined as 17.1 ± 1.1 µM; in data set [3], 80.7 ± 3.4 µM; in data set [4], 65.5 ± 4.2 µM; in data set [2] (Homo sapiens, MDA-MB-231, 48 h) it was 15.7 ± 0.9 µM. The “Selectivity Index (MCF-10A/MDA-MB-231)” value in data set [3] amounted to 5.1.
Molecule `COc1ccc2c(c1)C(=C1SC(=Nc3ccc(C)cc3)N(c3ccc(C)cc3)C1=O)C(=O)N2` [Compound 4l, 5-(5-Methoxy-2-oxoindolin-3-ylidene)-3-(p-tolyl)-2-(p-tolylimino)thiazolidin-4-one] returned a melting point of over 300 °C. The IC50 in data set [1] was determined as 53.5 ± 3.6 µM. For the same molecule, in data set [3], the IC50 was determined as 157 ± 6.8 µM and the “Selectivity Index (MCF-10A/MDA-MB-231)” value was 3.3. The molecule further gave an IC50 in data set [4] of 176 ± 11.3 µM. The molecule also came in with a half-maximal inhibitory concentration (IC50) in data set [2] of 47.2 ± 4.1 µM. The same molecule returned an IC50 in data set [2] (Homo sapiens, MDA-MB-231, 48 h) of 47.1 ± 4.1 µM.
In the case of `O=C1Nc2ccc(Cl)cc2C1=c1sc2nc3ccccc3n2c1=O` [Compound 7a, 2-(5-Chloro-2-oxoindolin-3-ylidene)benzo[4,5]imidazo[2,1-b]thiazol-3(2H)-one], the melting point is over 300 °C. In addition, in data set [1], the concentration for half-maximal inhibition (IC50) stood at 127 ± 9.9 µM. In data set [3], the 50% inhibitory concentration (IC50) worked out at 234 ± 9.6 µM and the “Selectivity Index (MCF-10A/MDA-MB-231)” value was found to be 5.0. The midpoint of inhibition in data set [4], the IC50, lay at 353 ± 17.1 µM. Moreover, in data set [2] (Homo sapiens, MDA-MB-231, 48 h), the half-inhibitory concentration (IC50) was determined as 47.2 ± 3.8 µM.
Consider `COc1ccc2c(c1)C(=C1SC(=Nc3ccccc3)N(c3ccccc3)C1=O)C(=O)N2` [Compound 4e, 5-(5-Methoxy-2-oxoindolin-3-ylidene)-3-phenyl-2-(phenylimino)thiazolidin-4-one], for which the concentration for half-maximal inhibition (IC50) in data set [1] was 52.9 ± 5 µM; in data set [3] it was 89.6 ± 5.1 µM; in data set [4] it was 193 ± 10.6 µM; in data set [2] (Homo sapiens, MDA-MB-231, 48 h), 42.6 ± 3.4 µM. In data set [3], the “Selectivity Index (MCF-10A/MDA-MB-231)” value is reported as 2.1.
